Like-named read-outs stand apart in the source and are kept apart here.
What was measured:
DENV-4 = experiment: Viral yield assay against DENV-4 in Vero cells; assay type: cell-based; conditions: Dengue virus
Summary of the method: (§1)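 Yield reduction, Vero; MOI 0.1; compound vs DMSO; 37° C; harvest 48 h p.i.; titer on Vero; EC50 fitted. Other serotypes run the same way.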

DENV-1 = experiment: Viral yield assay against DENV-1 in Vero cells; assay type: cell-based; conditions: Dengue virus
Summary of the method: as §1

DENV-3 = experiment: Viral yield assay against DENV-3 in Vero cells; assay type: cell-based; conditions: Dengue virus
Summary of the method: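 Progeny virus from compound-treated Vero monolayers infected at an MOI of 0.1 is collected after 48 h at 37° C and titered on Vero cells. DMSO serves as control.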

[1] = test system: Dengue-2 (Strain New Guinea C); experiment: Viral yield assay against Dengue-2 in Vero cells; assay type: cell-based, Dengue virus; conditions: Dengue virus, read-out: Activity (EC50 in μM) DENV-2
Summary of the method: as §1

dengue [2] = conditions: cited from earlier work
dengue [3] = conditions: mouse model; cited from earlier work
[4] = DENV2, viral yield assay, Vero cells, MOI 0.1, 48 hours post infection

## COc1cccc(-c2ccc3c(N)c(C(=O)Nc4ccccc4SCC(C)C)sc3n2)c1 [Compound 571, 3-amino-N-(2-isobutylsulfanylphenyl)-6-(3-methoxyphenyl)thieno[2,3-b] pyridine-2-carboxamide]
DENV-4; DENV4, viral yield assay
  EC50: < 5 µM
DENV-1; DENV1, viral yield assay
  EC50: < 5 µM
DENV-3; DENV3, viral yield assay
  EC50: < 5 µM
[1]; [4]
  EC50: < 5 µM

## COc1ccc(-c2ccc3c(N)c(C(=O)Nc4cccc(C(F)(F)F)c4)sc3n2)cc1OC [Compound 476, 3-amino-6-(3,4-dimethoxyphenyl)-N-[3-(trifluoromethyl)phenyl]thieno[2,3-b] pyridine-2-carboxamide]
DENV-4; DENV4, viral yield assay
  EC50: < 5 µM
DENV-1; DENV1, viral yield assay
  EC50: < 5 µM
DENV-3; DENV3, viral yield assay
  EC50: < 5 µM
[1]; [4]
  EC50: < 5 µM

## COc1cccc(-c2ccc3c(N)c(C(=O)Nc4ccc(OC(F)(F)F)cc4)sc3n2)c1 [Compound 430, 3-amino-6-(3-methoxyphenyl)-N-[4-(trifluoromethoxy)phenyl]thieno[2,3-b] pyridine-2-carboxamide]
DENV-4; DENV4, viral yield assay
  EC50: < 5 µM
DENV-1; DENV1, viral yield assay
  EC50: < 5 µM
DENV-3; DENV3, viral yield assay
  EC50: < 5 µM
[1]; [4]
  EC50: < 5 µM

## Cc1ccc(NC(=O)c2sc3nc(-c4cccs4)ccc3c2N)cc1C [Compound 414, 3-amino-N-(3,4-dimethylphenyl)-6-(2-thienyl)thieno[2,3-b]pyridine-2-carboxamide]
DENV-4; DENV4, viral yield assay
  EC50: < 5 µM
DENV-1; DENV1, viral yield assay
  EC50: < 5 µM
DENV-3; DENV3, viral yield assay
  EC50: < 5 µM
[1]; [4]
  EC50: < 5 µM

## Nc1c(C(=O)Nc2ccc(Cl)cc2F)sc2nc(-c3ccc4c(c3)OCO4)ccc12 [Compound 598, 3-amino-6-(1,3-benzodioxol-5-yl)-N-(4-chloro-2-fluoro-phenyl)thieno[2,3-b] pyridine-2-carboxamide]
DENV-4; DENV4, viral yield assay
  EC50: < 5 µM
DENV-1; DENV1, viral yield assay
  EC50: < 5 µM
DENV-3; DENV3, viral yield assay
  EC50: < 5 µM
[1]; [4]
  EC50: < 5 µM

## Nc1c(C(=O)Nc2cccc(Cl)c2Cl)sc2nc(-c3cccs3)ccc12 [Compound 434, 3-amino-N-(2,3-dichlorophenyl)-6-(2-thienyl)thieno[2,3-b]pyridine-2-carboxamide]
DENV-4; DENV4, viral yield assay
  EC50: < 5 µM
DENV-1; DENV1, viral yield assay
  EC50: < 5 µM
DENV-3; DENV3, viral yield assay
  EC50: < 5 µM
[1]; [4]
  EC50: < 5 µM

## CCCCSc1nc2ccc(NC(=O)c3sc4nc(-c5cccc(OC)c5)ccc4c3N)cc2s1 [Compound 570, 3-amino-N-(2-butylsulfanyl-1,3-benzo-thiazol-6-yl)-6-(3-methoxyphenyl)thieno [2,3-b]pyridine-2-carboxamide]
DENV-4; DENV4, viral yield assay
  EC50: < 5 µM
DENV-1; DENV1, viral yield assay
  EC50: < 5 µM
DENV-3; DENV3, viral yield assay
  EC50: < 5 µM
[1]; [4]
  EC50: < 5 µM

## NC(=O)c1ncn([C@@H]2O[C@H](CO)[C@@H](O)[C@H]2O)n1 [ribavirin, Ribavirin]
Dengue [2]; animal model, literature
  Adverse effects induced: induced anemia and thrombocytosis
Dengue [2]; rhesus monkey model
  Protection against dengue: did not show protection
Dengue [3]
  Protection against dengue: did not show protection

## Nc1c(C(=O)Nc2ccc(F)cc2)sc2nc(-c3ccc(Cl)cc3)ccc12 [Compound 646, 3-amino-6-(4-chlorophenyl)-N-(4-fluorophenyl)thieno[2,3-b]pyridine-2-carboxamide]
DENV-4; DENV4, viral yield assay
  EC50: < 5 µM
DENV-1; DENV1, viral yield assay
  EC50: < 5 µM
DENV-3; DENV3, viral yield assay
  EC50: < 5 µM
[1]; [4]
  EC50: < 5 µM

## Nc1c(C(=O)Nc2ccc(F)cc2F)sc2nc(-c3cccs3)ccc12 [Compound 471, 3-amino-N-(2,4-difluorophenyl)-6-(2-thienyl)thieno[2,3-b]pyridine-2-carboxamide]
DENV-4; DENV4, viral yield assay
  EC50: < 5 µM
DENV-1; DENV1, viral yield assay
  EC50: < 5 µM
DENV-3; DENV3, viral yield assay
  EC50: < 5 µM
[1]; [4]
  EC50: < 5 µM

## CNc1c(C(=O)Nc2nnc(-c3ccccc3)s2)sc2nc3c(cc12)CCCCC3 [Compound 359, 3-(methylamino)-N-(5-phenyl-1,3,4-thiadiazol-2-yl)-6,7,8,9-tetrahydro-5H-cyclohepta[b]thieno[3,2-e]pyridine-2-carboxamide]
DENV-4; DENV4
  EC50: 5 to 25 µM
DENV-1; DENV1
  EC50: < 5 µM
DENV-3; DENV3
  EC50: > 25 µM
[1]; DENV2, Vero cells
  EC50: < 5 µM

## COc1cccc(-c2ccc3c(N)c(C(=O)Nc4ccc(C)c(C)c4)sc3n2)c1 [Compound 546, 3-amino-N-(3,4-dimethylphenyl)-6-(3-methoxyphenyl)thieno[2,3-b]pyridine-2-carboxamide]
DENV-4; DENV4, viral yield assay
  EC50: < 5 µM
DENV-1; DENV1, viral yield assay
  EC50: < 5 µM
DENV-3; DENV3, viral yield assay
  EC50: < 5 µM
[1]; [4]
  EC50: < 5 µM

## O=C(O)CC(=O)Nc1c(C(=O)Nc2nnc(-c3ccccc3)s2)sc2nc3c(cc12)CCCCC3 [Compound 295, 3-oxo-3-((2-((5-phenyl-1,3,4-thiadiazol-2-yl)carbamoyl)-6,7,8,9-tetrahydro-5H-cyclohepta[b]thieno[3,2-e]pyridin-3-yl)amino)propanoic acid]
DENV-4; DENV4
  EC50: < 5 µM
DENV-1; DENV1
  EC50: < 5 µM
DENV-3; DENV3
  EC50: < 5 µM
[1]; DENV2, Vero cells
  EC50: < 5 µM

## COc1ccc(-c2ccc3c(N)c(C(=O)Nc4ccccc4Br)sc3n2)cc1 [Compound 468, 3-amino-N-(2-bromophenyl)-6-(4-methoxyphenyl)thieno[2,3-b]pyridine-2-carboxamide]
DENV-4; DENV4, viral yield assay
  EC50: < 5 µM
DENV-1; DENV1, viral yield assay
  EC50: < 5 µM
DENV-3; DENV3, viral yield assay
  EC50: < 5 µM
[1]; [4]
  EC50: < 5 µM

## Nc1c(C(=O)Nc2ccc(OC(F)(F)F)cc2)sc2nc(-c3cccs3)ccc12 [Compound 428, 3-amino-6-(2-thienyl)-N-[4-(trifluoromethoxy)phenyl]thieno[2,3-b] pyridine-2-carboxamide]
DENV-4; DENV4, viral yield assay
  EC50: < 5 µM
DENV-1; DENV1, viral yield assay
  EC50: < 5 µM
DENV-3; DENV3, viral yield assay
  EC50: < 5 µM
[1]; [4]
  EC50: < 5 µM

## CCOC(=O)CCC(=O)Nc1c(C(=O)Nc2cccc(C(F)(F)F)c2)sc2nc(-c3cccs3)ccc12 [Compound 310, Ethyl 4-oxo-4-[[6-(2-thienyl)-2-[[3-(trifluoromethyl)phenyl]carbamoyl]thieno[2,3-b]pyridin-3-yl]amino]butanoate]
DENV-4; DENV4
  EC50: < 5 µM
DENV-1; DENV1
  EC50: < 5 µM
DENV-3; DENV3
  EC50: < 5 µM
[1]; DENV2, Vero cells
  EC50: < 5 µM

## Nc1c(C(=O)Nc2ccc(Cl)cc2F)sc2nc(-c3ccc(F)cc3)ccc12 [Compound 617, 3-amino-N-(4-chloro-2-fluoro-phenyl)-6-(4-fluorophenyl)thieno[2,3-b]pyridine-2-carboxamide]
DENV-4; DENV4, viral yield assay
  EC50: < 5 µM
DENV-1; DENV1, viral yield assay
  EC50: < 5 µM
DENV-3; DENV3, viral yield assay
  EC50: < 5 µM
[1]; [4]
  EC50: < 5 µM

## O=C1CCC(=O)N(c2cccc(C(F)(F)F)c2)C(=O)c2sc3nc(-c4cccs4)ccc3c2N1 [Compound 306, 2-(thiophen-2-yl)-10-(3-(trifluoromethyl)phenyl)-7,8-dihydro-5H-pyrido[3′,2′:4,5]thieno[3,2-b][1,5]diazonine-6,9,11(10H)-trione]
DENV-4; DENV4, viral yield assay
  EC50: < 5 µM
DENV-1; DENV1, viral yield assay
  EC50: < 5 µM
DENV-3; DENV3, viral yield assay
  EC50: < 5 µM
[1]; [4]
  EC50: < 5 µM

## COc1cccc(-c2ccc3c(N)c(C(=O)Nc4ccc(Cl)c(C(F)(F)F)c4)sc3n2)c1 [Compound 498, 3-amino-N-[4-chloro-3-(trifluoromethyl)phenyl]-6-(3-methoxyphenyl)thieno [2,3-b]pyridine-2-carboxamide]
DENV-4; DENV4, viral yield assay
  EC50: < 5 µM
DENV-1; DENV1, viral yield assay
  EC50: < 5 µM
DENV-3; DENV3, viral yield assay
  EC50: < 5 µM
[1]; [4]
  EC50: < 5 µM

## Nc1c(C(=O)Nc2cc(F)ccc2F)sc2nc(-c3cccs3)ccc12 [Compound 470, 3-amino-N-(2,5-difluorophenyl)-6-(2-thienyl)thieno[2,3-b]pyridine-2-carboxamide]
DENV-4; DENV4, viral yield assay
  EC50: < 5 µM
DENV-1; DENV1, viral yield assay
  EC50: < 5 µM
DENV-3; DENV3, viral yield assay
  EC50: < 5 µM
[1]; DENV2, Vero, 48 h
  EC50: < 5 µM

## Nc1c(C(=O)Nc2ccc(F)c(F)c2)sc2nc(-c3ccc(F)cc3)ccc12 [Compound 615, 3-amino-N-(3,4-difluorophenyl)-6-(4-fluorophenyl)thieno[2,3-b]pyridine-2-carboxamide]
DENV-4; DENV4, viral yield assay
  EC50: < 5 µM
DENV-1; DENV1, viral yield assay
  EC50: < 5 µM
DENV-3; DENV3, viral yield assay
  EC50: < 5 µM
[1]; [4]
  EC50: < 5 µM

## Cc1ccc(C)c(NC(=O)c2sc3nc(-c4cccs4)ccc3c2N)c1 [Compound 438, 3-amino-N-(2,5-dimethylphenyl)-6-(2-thienyl)thieno[2,3-b]pyridine-2-carboxamide]
DENV-4; DENV4, viral yield assay
  EC50: < 5 µM
DENV-1; DENV1, viral yield assay
  EC50: < 5 µM
DENV-3; DENV3, viral yield assay
  EC50: < 5 µM
[1]; [4]
  EC50: < 5 µM

## Nc1c(C(=O)Nc2cccc(F)c2)sc2nc(-c3ccc4c(c3)OCO4)ccc12 [Compound 602, 3-amino-6-(1,3-benzodioxol-5-yl)-N-(3-fluorophenyl)thieno[2,3-b]pyridine-2-carboxamide]
DENV-4; DENV4, viral yield assay
  EC50: 5 to 25 µM
DENV-1; DENV1, viral yield assay
  EC50: < 5 µM
DENV-3; DENV3, viral yield assay
  EC50: < 5 µM
[1]; DENV2, Vero, 48 h
  EC50: < 5 µM

## Nc1c(C(=O)Nc2ccc(F)cc2)sc2nc(-c3ccc(F)cc3)ccc12 [Compound 490, 3-amino-N,6-bis(4-fluorophenyl) thieno[2,3-b]pyridine-2-carboxamide]
DENV-4; DENV4, viral yield assay
  EC50: < 5 µM
DENV-1; DENV1, viral yield assay
  EC50: < 5 µM
DENV-3; DENV3, viral yield assay
  EC50: 5 to 25 µM
[1]; [4]
  EC50: < 5 µM

## Cc1ccc(NC(=O)c2sc3nc(-c4ccc(C)cc4)ccc3c2N)cc1 [Compound 636, 3-amino-N,6-bis(p-tolyl)thieno[2,3-b] pyridine-2-carboxamide]
DENV-4; DENV4, viral yield assay
  EC50: < 5 µM
DENV-1; DENV1, viral yield assay
  EC50: < 5 µM
DENV-3; DENV3, viral yield assay
  EC50: < 5 µM
[1]; [4]
  EC50: < 5 µM

## Cc1cc(Br)ccc1NC(=O)c1sc2nc(-c3ccc4c(c3)OCO4)ccc2c1N [Compound 497, 3-amino-6-(1,3-benzodioxol-5-yl)-N-(4-bromo-2-methyl-phenyl)thieno[2,3-b] pyridine-2-carboxamide]
DENV-4; DENV4, viral yield assay
  EC50: < 5 µM
DENV-1; DENV1, viral yield assay
  EC50: < 5 µM
DENV-3; DENV3, viral yield assay
  EC50: < 5 µM
[1]; [4]
  EC50: < 5 µM
